What was measured:
[1] = Reversal of multidrug resistance in human MCF7/DX cells assessed as potentiation doxorubicin-induced cytotoxicity by measuring reduction in doxorubicin IC50 level at 30 uM incubated for 48 hrs by MTT assay relative to untreated control; assay type: functional
[2] = Cytotoxicity against human MCF7/DX cells incubated for 48 hrs by MTT assay; assay type: cell-based
[3] = Reversal of multidrug resistance in human MCF7/DX cells assessed as potentiation doxorubicin-induced cytotoxicity by measuring reduction in doxorubicin IC50 level at 5 uM incubated for 48 hrs by MTT assay relative to untreated control; assay type: functional

Row | SMILES | fold change (FC) [1] | IC50 [2] [µM] | fold change (FC) [3]
1 | C=C[C@@]1(CCC=C(C)C)C[C@H](CC(C)C)C2=C(O1)C(C)(C)C(=O)C(C)(C)C2=O | 10.1 | > 30 | –
2 | CC(C)C[C@H]1C[C@]2(CC[C@]3(C(C)C)C[C@H]23)OC2=C1C(=O)C(C)(C)C(=O)C2(C)C | 5.6 | > 30 | –
3 | CC(C)C[C@@H]1C[C@@]2(CC[C@]3(C(C)C)C[C@H]23)OC2=C1C(=O)C(C)(C)C(=O)C2(C)C | 4.5 | > 30 | –
4 | C=C[C@]1(CCC=C(C)C)C[C@@H](CC(C)C)C2=C(O1)C(C)(C)C(=O)C(C)(C)C2=O | 7.4 | > 30 | –
5 | C=C[C@@]1(CCC=C(C)C)C[C@@H](CC(C)C)C2=C(O1)C(C)(C)C(=O)C(C)(C)C2=O | 4.7 | > 30 | –
6 | CC(C)C[C@H]1C[C@@]2(CC[C@]3(C(C)C)C[C@H]23)OC2=C1C(=O)C(C)(C)C(=O)C2(C)C | 1 | > 30 | –
7 | Cc1ccc2c(c1)[C@H](C(C)C)CC[C@]21C[C@H](CC(C)C)C2=C(O1)C(C)(C)C(=O)C(C)(C)C2=O | 0.9 | > 30 | –
8 | COc1ccc(CCN(C)CCCC(C#N)(c2ccc(OC)c(OC)c2)C(C)C)cc1OC (centres undefined) | – | – | 5.4
9 | CC(C)C[C@@H]1C[C@]2(CC[C@]3(C(C)C)C[C@H]23)OC2=C1C(=O)C(C)(C)C(=O)C2(C)C | 1.2 | > 30 | –
10 | C=C[C@]1(CCC=C(C)C)C[C@H](CC(C)C)C2=C(O1)C(C)(C)C(=O)C(C)(C)C2=O | 16.5 | > 30 | –
